Measured values from PubChem BioAssay AID1963967 (Molecular Pharmacology Branch, DTP, NCI, 2024).

System: 855422-203-R-J1-PDC spheroids with HUVEC/MSC, viability
Assay: Anticancer human tumor 855422-203-R-J1-PDC patient-derived bladder carcinoma cell line growth inhibition [PI3K]
Conditions: for IC50: curve of first compound; for viability, T/C: stronger effect = lower value
Procedure, shortened: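 Combination activity was assessed by viability in multicellular tumor spheroids carrying HUVEC and MSC components. Agents were tested with PI3K inhibitors from a Cmax-based top dose (or 10 microM) downward in half-log increments.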

[1] = second compound 0.00316 µM, first compound 0.0316 µM
[2] = second compound 0.00316 µM, first compound 0.1 µM
[3] = second compound 0.01 µM, first compound 0.0316 µM
[4] = second compound 0.01 µM, first compound 0.1 µM
[5] = second compound 0.0316 µM, first compound 0.0316 µM
[6] = second compound 0.0316 µM, first compound 0.1 µM
[7] = second compound 0.1 µM, first compound 0.0316 µM
[8] = second compound 0.1 µM, first compound 0.1 µM
[9] = second compound 0.316 µM, first compound 0.0316 µM
[10] = second compound 0.316 µM, first compound 0.1 µM
[11] = second compound 1 µM, first compound 0.0316 µM
[12] = second compound 1 µM, first compound 0.1 µM
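Note: agents incubated with spheroids for one week before read-out.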
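Throughout, for viability, T/C: 100% = DMSO vehicle-treated control wells.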

CC1(C)CCC(Nc2ncc(C(F)(F)F)c(-c3c[nH]c4c(P(C)(C)=O)c(C#N)ccc34)n2)CN1 (centres undefined) + CC(Nc1ccc2c(c1)OCCn1cc(N3C(=O)OCC3C(F)F)nc1-2)C(N)=O
IC50 (second compound 0.00316 µM): < 31.6 nM | IC50 (second compound 0.01 µM): < 31.6 nM | IC50 (second compound 0.0316 µM): < 31.6 nM | IC50 (second compound 0.1 µM): < 31.6 nM | IC50 (second compound 0.316 µM): < 31.6 nM | IC50 (second compound 1 µM): < 31.6 nM | viability, T/C [1]: 23.7% | viability, T/C [2]: 25% | viability, T/C (second compound 0.00316 µM, first compound 0.316 µM): 27.9% | viability, T/C (second compound 0.00316 µM, first compound 1 µM): 31.6% | viability, T/C (second compound 0.00316 µM, first compound 3.16 µM): 31.4% | viability, T/C (second compound 0.00316 µM, first compound 10 µM): 3.85% | viability, T/C [3]: 20.4% | viability, T/C [4]: 21.3% | viability, T/C (second compound 0.01 µM, first compound 0.316 µM): 26.2% | viability, T/C (second compound 0.01 µM, first compound 1 µM): 25.8% | viability, T/C (second compound 0.01 µM, first compound 3.16 µM): 29.1% | viability, T/C (second compound 0.01 µM, first compound 10 µM): 3.78% | viability, T/C [5]: 20.2% | viability, T/C [6]: 22.9% | viability, T/C (second compound 0.0316 µM, first compound 0.316 µM): 22.2% | viability, T/C (second compound 0.0316 µM, first compound 1 µM): 24.6% | viability, T/C (second compound 0.0316 µM, first compound 3.16 µM): 24.1% | viability, T/C (second compound 0.0316 µM, first compound 10 µM): 2.13% | viability, T/C [7]: 20.2% | viability, T/C [8]: 19.4% | viability, T/C (second compound 0.1 µM, first compound 0.316 µM): 20% | viability, T/C (second compound 0.1 µM, first compound 1 µM): 23.2% | viability, T/C (second compound 0.1 µM, first compound 3.16 µM): 21.5% | viability, T/C (second compound 0.1 µM, first compound 10 µM): 3.77% | viability, T/C [9]: 15.3% | viability, T/C [10]: 17.9% | viability, T/C (second compound 0.316 µM, first compound 0.316 µM): 15.7% | viability, T/C (second compound 0.316 µM, first compound 1 µM): 15.5% | viability, T/C (second compound 0.316 µM, first compound 3.16 µM): 13.7% | viability, T/C (second compound 0.316 µM, first compound 10 µM): 1.23% | viability, T/C [11]: 14.4% | viability, T/C [12]: 14.2% | viability, T/C (second compound 1 µM, first compound 0.316 µM): 13.1% | viability, T/C (second compound 1 µM, first compound 1 µM): 12.6% | viability, T/C (second compound 1 µM, first compound 3.16 µM): 11.4% | viability, T/C (second compound 1 µM, first compound 10 µM): 0.83%

Cn1ncnc1[C@H]1c2n[nH]c(=O)c3cc(F)cc(c23)N[C@@H]1c1ccc(F)cc1 + COc1c(OCCCN2CCOCC2)ccc2c3n(c(=NC(=O)c4cnc(N)nc4)nc12)CCN3
IC50 (second compound 0.00316 µM): > 100 nM | IC50 (second compound 0.01 µM): > 100 nM | IC50 (second compound 0.0316 µM): > 100 nM | IC50 (second compound 0.1 µM): < 0.316 nM | IC50 (second compound 0.316 µM): < 0.316 nM | IC50 (second compound 1 µM): < 0.316 nM | viability, T/C (second compound 0.00316 µM, first compound 0.000316 µM): 97.2% | viability, T/C (second compound 0.00316 µM, first compound 0.001 µM): 98% | viability, T/C (second compound 0.00316 µM, first compound 0.00316 µM): 98.6% | viability, T/C (second compound 0.00316 µM, first compound 0.01 µM): 90.5% | viability, T/C [1]: 90.8% | viability, T/C [2]: 91.7% | viability, T/C (second compound 0.01 µM, first compound 0.000316 µM): 88.8% | viability, T/C (second compound 0.01 µM, first compound 0.001 µM): 80.7% | viability, T/C (second compound 0.01 µM, first compound 0.00316 µM): 78% | viability, T/C (second compound 0.01 µM, first compound 0.01 µM): 97.2% | viability, T/C [3]: 94.6% | viability, T/C [4]: 92.2% | viability, T/C (second compound 0.0316 µM, first compound 0.000316 µM): 65.5% | viability, T/C (second compound 0.0316 µM, first compound 0.001 µM): 62.2% | viability, T/C (second compound 0.0316 µM, first compound 0.00316 µM): 62.2% | viability, T/C (second compound 0.0316 µM, first compound 0.01 µM): 52.7% | viability, T/C [5]: 52.7% | viability, T/C [6]: 53.1% | viability, T/C (second compound 0.1 µM, first compound 0.000316 µM): 24.2% | viability, T/C (second compound 0.1 µM, first compound 0.001 µM): 25.9% | viability, T/C (second compound 0.1 µM, first compound 0.00316 µM): 29.1% | viability, T/C (second compound 0.1 µM, first compound 0.01 µM): 27.5% | viability, T/C [7]: 22.9% | viability, T/C [8]: 24.5% | viability, T/C (second compound 0.316 µM, first compound 0.000316 µM): 9.77% | viability, T/C (second compound 0.316 µM, first compound 0.001 µM): 8.64% | viability, T/C (second compound 0.316 µM, first compound 0.00316 µM): 8.11% | viability, T/C (second compound 0.316 µM, first compound 0.01 µM): 8.04% | viability, T/C [9]: 7.3% | viability, T/C [10]: 8.75% | viability, T/C (second compound 1 µM, first compound 0.000316 µM): 4.95% | viability, T/C (second compound 1 µM, first compound 0.001 µM): 3.74% | viability, T/C (second compound 1 µM, first compound 0.00316 µM): 3.02% | viability, T/C (second compound 1 µM, first compound 0.01 µM): 3.29% | viability, T/C [11]: 4.31% | viability, T/C [12]: 3.2%
